# Square brackets hold non-standard residues; d marks the D form. Peptide text beside a SMILES is read from it. * marks the point of attachment. Dolaproine = CO[C@@H]([C@@H]1CCCN1)[C@@H](C)C(=O)O; Dil = CC[C@H](C)[C@H](NC)[C@@H](CC(=O)O)OC; X1 = C[C@@H](N*)[C@@H](O)c1ccccc1; NMeV = CN[C@H](C(=O)O)C(C)C
# What was measured:
# [1] = test system: human urinary bladder cancer cell line (T-24); assay: Cytotoxicity assay, cell titer glow luminescence, 72 h; assay type: cell-based; conditions: 72 h
# Description: (§1) T-24 Cell line were cultured in McCoy's 5a Medium Modified supplemented with 10% FBS and the PA-1 Cell line was cultured in EMEM Media supplemented with 10% FBS. The assay was performed by plating 5,000 cells/well and incubated at 37° C. overnight. […] Each concentration was added in triplicate and media-only wells used as a control. After incubation for 72 h cell titer glow (Promega) reagent (50 μL) was added to each well and the plates shaken for 5 mins and the luminescence was recorded. Percent viability was determined by dividing luminescence of the treated well by the non-treated well and multiplying by 100. Data was analysed using non-linear regression with a logarithmic scale.
# (§2) 5,000 cells/well were plated and incubated at 37° C. overnight. Conjugates/vehicle control dilutions were made in respective media and added to cells. Volume added: 50 uL to each well. Starting treatment concentration was 1 uM for Conjugate of formula 16 and 18, and control SEQ ID NO: 5 alone and 10% for vehicle control (1×PBS with 20% DMA) and then diluted 10-fold down for a total of 11 treatment dilutions. Each concentration was analysed in triplicates. Media-only wells was used as a control to calculate percent viability. Cell titer glow reagent (volume: 50 uL) was added to each well, the plate was shaken for 5 mins and the luminescence was recorded. Drug Treatment Time: 72 hours. Percent viability was calculated by dividing the luminescence signal obtained for each treated well by the untreated well (media-only control) and multiplying by 100.
# [2] = test system: ovarian cancer cell line (PA-1); assay: as above; assay type: cell-based; conditions: 72 h
# Description: as §1, §2
# AGS Stomach = assay: Cytotoxic effect by MTT assay, 48 h; conditions: read-out: IC50 Values; AGS Stomach, after 48 h of treatment
# Description: (§3) Cells were treated with Test Items at various concentrations (0.0001 μM-10 μM) for 48 h. The cells corresponding to Positive Control group were treated with Doxorubicin at a concentration ranging from 0.1 μM-100 μM. The Untreated cells were used as Control. After 48 h of incubation, the effect of Test Items on cytotoxicity of cells was determined by MTT assay, the plates were taken out and 20 μl of 5 mg/m1 of MTT 3-(4,5-dimethythiazol-2-yl)-2,5-diphenyl tetrazolium bromide solution was added to all the wells. Cells were incubated for 3 h at 37° C. The supernatant was aspirated. 150 μl of DMSO was added to each well to dissolve formazan crystals. The absorbance of each well was then read at 540 nm using Synergy HT micro plate reader.
# (§4) The % Cytotoxicity was calculated using the formula:
# (§5) Where, X=Absorbance of cells treated with Test Item; R=Absorbance of Control cells (Untreated cells maintained in growth medium only).
# (§6) Selectivity Index was calculated using the formula:
# (§7) SI=IC50 in Normal cell/IC50 in cancer cell.
# (§8) Activity scores of the Selective Index values were categorized as: • Not selective (SI value ≤1) • Moderately selective (1<SI value <5) • Selective (SI value ≥5)
# HT29 Colon = assay: Cytotoxic effect by MTT assay, 48 h; conditions: read-out: IC50 Values; HT29 Colon, after 48 h of treatment
# Description: as §3, §4, §5, §6, §7, §8
# KB Cervix = assay: Cytotoxic effect by MTT assay, 48 h; conditions: for Percent cytotoxicity wrt control: KB, 48 h
# Description: as §3, §4, §5, §6, §7, §8
# MDA-MB-231 Breast = assay: Cytotoxic effect by MTT assay, 48 h; conditions: read-out: IC50 Values; MDA-MB-231 Breast, after 48 h of treatment
# Description: as §3, §4, §5, §6, §7, §8
# MG-63 Bone = assay: Cytotoxic effect by MTT assay, 48 h; conditions: for Percent cytotoxicity wrt control: 48 h
# Description: as §3, §4, §5, §6, §7, §8
# PA-1 Ovary = assay: Cytotoxic effect by MTT assay, 48 h; conditions: for Percent cytotoxicity wrt control: 48 h
# Description: as §3, §4, §5, §6, §7, §8
# PANC-1 Pancreatic = assay: Cytotoxic effect by MTT assay, 48 h; conditions: for Percent cytotoxicity wrt control: 48 h
# Description: as §3, §4, §5, §6, §7, §8
# T24 Bladder = assay: Cytotoxic effect by MTT assay, 48 h; conditions: 48 h
# Description: as §3, §4, §5, §6, §7, §8
# PA-1 cells = assay: Cytotoxicity (cell titer glo, 72 h) ovarian cancer cell line PA-1; assay type: cell-based; conditions: Homo sapiens, PA-1 cell line
# Description: as §1
# (§9) 5,000 cells/well were plated and incubated at 37° C. overnight. Conjugates/vehicle control dilutions were made in respective media and added to cells. Volume added: 50 uL to each well. […] Each concentration was analysed in triplicates. […] Cell titer glow reagent (volume: 50 uL) was added to each well, the plate was shaken for 5 mins and the luminescence was recorded. […] Percent viability was calculated by dividing the luminescence signal obtained for each treated well by the untreated well (media-only control) and multiplying by 100.
# T-24 cells = assay: Cytotoxicity (cell titer glo, 72 h) human urinary bladder cancer cell line T-24; assay type: cell-based; conditions: T-24 cell line
# Description: as §1, §9
# MG-63 cells = assay: MTT cytotoxicity assay, MG-63 bone; assay type: cell-based; conditions: Homo sapiens, MG-63, 48 h
# Description: (§10) The Untreated cells were used as Control. […] Cells were incubated for 3 h at 37° C. The supernatant was aspirated.
# (§11) The % Cytotoxicity was calculated using the formula: […]
# as §6, §7
# KB cells = assay: MTT cytotoxicity assay, KB cervix; assay type: cell-based; conditions: Homo sapiens, 48 h
# Description: as §10, §11, §6, §7
# U251 MG cells = assay: MTT cytotoxicity assay, U251 MG brain; assay type: cell-based; conditions: Homo sapiens
# Description: as §10, §11, §6, §7
# PANC-1 cells = assay: MTT cytotoxicity assay, PANC-1 pancreatic; assay type: cell-based; conditions: Homo sapiens
# Description: as §10, §11, §6, §7
compound,measurement,setting,value
"CC[C@H](C)[C@@H]([C@@H](CC(=O)N1CCC[C@H]1[C@H](OC)[C@@H](C)C(=O)N[C@H](C)[C@@H](O)c1ccccc1)OC)N(C)C(=O)[C@@H](NC(=O)[C@@H](NC)C(C)C)C(C)C [MMAE, monomethyl auristatin E] (H-[NMeV]V[Dil][Dolaproine]-X1)",IC50,[1],0.24 nM
same,IC50,[2],3.23 nM
same,IC50,AGS Stomach,1540 nM
same,IC50,HT29 Colon,50 nM
same,Percent cytotoxicity wrt control,KB Cervix; 0.0001 μM,90.5%
same,Percent cytotoxicity wrt control,KB Cervix; 0.01 μM,96.1%
same,Percent cytotoxicity wrt control,KB Cervix; 0.1 μM,96.3%
same,Percent cytotoxicity wrt control,KB Cervix; 1 μM,96.2%
same,Percent cytotoxicity wrt control,KB Cervix; 10 μM,96.3%
same,IC50,"KB Cervix; read-out: IC50 Values, KB Cervix, after 48 h of treatment",≤ 0.1 nM
same,IC50,MDA-MB-231 Breast,> 10000 nM
same,Percent cytotoxicity wrt control,"MG-63 Bone; MG-63, 0.0001 μM",81.7%
same,Percent cytotoxicity wrt control,"MG-63 Bone; MG-63, 0.001 μM",85.5%
same,Percent cytotoxicity wrt control,"MG-63 Bone; MG-63, 0.01 μM",86.2%
same,Percent cytotoxicity wrt control,"MG-63 Bone; MG-63, 0.1 μM",87.4%
same,Percent cytotoxicity wrt control,"MG-63 Bone; MG-63, 1 μM",85.3%
same,Percent cytotoxicity wrt control,"MG-63 Bone; MG-63, 10 μM",82.3%
same,IC50,"MG-63 Bone; read-out: IC50 Values, MG-63 Bone, after 48 h of treatment",≤ 0.1 nM
same,Percent cytotoxicity wrt control,"PA-1 Ovary; PA-1, 0.0001 μM",13.4%
same,Percent cytotoxicity wrt control,"PA-1 Ovary; PA-1, 0.001 μM",57.5%
same,Percent cytotoxicity wrt control,"PA-1 Ovary; PA-1, 0.01 μM",50%
same,Percent cytotoxicity wrt control,"PA-1 Ovary; PA-1, 0.1 μM",57.5%
same,Percent cytotoxicity wrt control,"PA-1 Ovary; PA-1, 1 μM",61.7%
same,Percent cytotoxicity wrt control,"PA-1 Ovary; PA-1, 10 μM",58.3%
same,IC50,"PA-1 Ovary; read-out: IC50 Values, PA-1 Ovary, after 48 h of treatment",30.1 nM
same,Percent cytotoxicity wrt control,"PANC-1 Pancreatic; PANC-1, 0.0001 μM",38.1%
same,Percent cytotoxicity wrt control,"PANC-1 Pancreatic; PANC-1, 0.001 μM",41%
same,Percent cytotoxicity wrt control,"PANC-1 Pancreatic; PANC-1, 0.01 μM",64.1%
same,Percent cytotoxicity wrt control,"PANC-1 Pancreatic; PANC-1, 0.1 μM",67.7%
same,Percent cytotoxicity wrt control,"PANC-1 Pancreatic; PANC-1, 10 μM",69.7%
same,IC50,"PANC-1 Pancreatic; read-out: IC50 Values, PANC-1 Pancreatic, after 48 h of treatment",1.5 nM
same,Percent cytotoxicity wrt control,"T24 Bladder; T24, 0.0001 μM",51.8%
same,Percent cytotoxicity wrt control,"T24 Bladder; T24, 0.001 μM",51.1%
same,Percent cytotoxicity wrt control,"T24 Bladder; T24, 0.1 μM",44.4%
same,Percent cytotoxicity wrt control,"T24 Bladder; T24, 1 μM",44.4%
same,IC50,PA-1 cells,3.23 nM
same,IC50,T-24 cells,0.24 nM
same,IC50,MG-63 cells,0.1 nM
same,cytotoxicity at 0.0001 µM,"KB cells; 0.0001 μm, read-out: Percent cytotoxicity wrt control",90.5%
same,cytotoxicity at 0.001 µM,"KB cells; 0.001 μm, read-out: Percent cytotoxicity wrt control",95.8%
same,cytotoxicity at 0.01 µM,"KB cells; 0.01 μm, read-out: Percent cytotoxicity wrt control",96.1%
same,cytotoxicity at 0.1 µM,"KB cells; 0.1 μm, read-out: Percent cytotoxicity wrt control",96.3%
same,cytotoxicity at 1 µM,"KB cells; 1 μm, read-out: Percent cytotoxicity wrt control",96.2%
same,cytotoxicity at 10 µM,"KB cells; 10 μm, read-out: Percent cytotoxicity wrt control",96.3%
same,IC50,KB cells,0.1 nM
same,cytotoxicity at 0.0001 µM,"U251 MG cells; U-251, 0.0001 μm, 48 h, read-out: Percent cytotoxicity wrt control",77.8%
same,cytotoxicity at 0.001 µM,"U251 MG cells; U-251, 0.001 μm, 48 h, read-out: Percent cytotoxicity wrt control",52.5%
same,cytotoxicity at 0.01 µM,"U251 MG cells; U-251, 0.01 μm, 48 h, read-out: Percent cytotoxicity wrt control",58.6%
same,cytotoxicity at 0.1 µM,"U251 MG cells; U-251, 0.1 μm, 48 h, read-out: Percent cytotoxicity wrt control",63.1%
same,cytotoxicity at 1 µM,"U251 MG cells; U-251, 1 μm, 48 h, read-out: Percent cytotoxicity wrt control",64.7%
same,cytotoxicity at 10 µM,"U251 MG cells; U-251, 10 μm, 48 h, read-out: Percent cytotoxicity wrt control",71%
same,IC50,"U251 MG cells; U-251, 48 h",0.2 nM
same,IC50,"PANC-1 cells; PANC-1, 48 h",1.5 nM
same,cytotoxicity at 0.0001 µM,"PANC-1 cells; PANC-1, 0.0001 μm, 48 h, read-out: Percent cytotoxicity wrt control",38.1%
same,cytotoxicity at 0.001 µM,"PANC-1 cells; PANC-1, 0.001 μm, 48 h, read-out: Percent cytotoxicity wrt control",41%
same,cytotoxicity at 0.01 µM,"PANC-1 cells; PANC-1, 0.01 μm, 48 h, read-out: Percent cytotoxicity wrt control",64.1%
same,cytotoxicity at 0.1 µM,"PANC-1 cells; PANC-1, 0.1 μm, 48 h, read-out: Percent cytotoxicity wrt control",67.7%
same,cytotoxicity at 1 µM,"PANC-1 cells; PANC-1, 1 μm, 48 h, read-out: Percent cytotoxicity wrt control",77.1%
same,cytotoxicity at 10 µM,"PANC-1 cells; PANC-1, 10 μm, 48 h, read-out: Percent cytotoxicity wrt control",69.7%
